Literature values, collected in US20240418706A1, “QUANTIFICATION OF CIRCULATING REGENERATIVE AND ENDOTHELIAL PROGENITOR CELLS AS PREDICTORS OF HEALTH STATUS” (priority 2022, published 2024).
Like-named read-outs stand apart in the source and are kept apart here.

Tests used:
circulating EPC [1] = conditions: in vivo
[2] = >17,000 healthy persons without hyperlipidemia but with elevated high-sensitivity C-reactive protein
circulating EPC [3] = conditions: lipid lowering therapy
[4] = system: endothelial responsiveness
[5] = 6 days of G-CSF at 10 μg/kg
EPC = conditions: in vivo
[6] = 41 patients with large anterior wall AMI
[7] = 114 patients, 56 treated and 58 control

CC(C)c1nc(N(C)S(C)(=O)=O)nc(-c2ccc(F)cc2)c1/C=C/[C@@H](O)C[C@@H](O)CC(=O)O [Crestor]
circulating EPC levels (circulating EPC [1]): increase circulating EPC levels | CRP levels [2]: lowering CRP levels | incidence of major cardiovascular incidents [2]: significantly reduced

CC(C)c1c(C(=O)Nc2ccccc2)c(-c2ccccc2)c(-c2ccc(F)cc2)n1CC[C@@H](O)C[C@@H](O)CC(=O)O [atorvastatin]
circulating EPC (circulating EPC [3]): increase circulating EPC | oxidative stress (circulating EPC [3]): reduced oxidative stress

growth hormone: growth hormone, used in "antiaging medicine"
endothelial responsiveness ([4]; healthy volunteers): improve endothelial responsiveness | endothelial responsiveness ([4]; patients with congestive heart failure): improve endothelial responsiveness

B1: G-CSF: Granulocyte colony stimulating factor, used clinically for mobilization of hematopoietic stem cells (protein, UniProt P09919 31-207, looked up)
Granulocyte …: TPLGPASSLPQSFLLKCLEQVRKIQGDGAALQEKLVSECATYKLCHPEELVLLGHSLGIPWAPLSSCPSQALQLAGCLSQLHSGLFLYQGLLQALEGISPELGPTLDTLQLDVADFATTIWQQMEELGMAPALQPTQGAMPAFASAFQRRAGGVLVASHLQSFLEVSYRVLRHLAQP
myocardial wall at the area of infarct ([5]; four months after the infarct, sustained over a year, compared to controls): thicker myocardial wall | ejection fraction ([5]; in comparison to controls): Statistically significant improvements | pathological remodeling ([5]; in comparison to controls): inhibition of pathological remodeling | mobilization of EPC (EPC): stimulates mobilization of EPC | LVEF [6]: improvement in LVEF | pathological remodeling [6]: diminished pathological remodeling | infarct size, left ventricular function, or coronary restenosis [7]: no influence
